The values that follow are results of earlier work, collected in patent publication US12686875B2, “Small molecules for increasing precise genome editing efficiency” (Max-Planck-Gesellschaft zur Förderung der Wissenschaften …, priority 2018, dated 2026).

The subject of one data set is HEK293A cells. The note with it: cited from earlier work.
The test system of another data set is hiPSCs. The note with it: cited from earlier work.
Another data set deals with mouse ESCs. The following applies: dsODN donors, from 17.7% without L755507 (Yu et al. 2015); cited from earlier work.
For data set [1], the system named is precise genome editing (PGE). The note with it: SCR7 and L755507 added together with RS-1; cited from earlier work.
A further data set relates to rabbit embryos. The note with it: cited from earlier work.
The test system of another data set is U2OS cells. The note with it: dsODN donors, from 1.9% without RS-1; cited from earlier work.
Data set [2] concerns porcine fetal fibroblasts. The note with it: ssODN donors (Wang et al. 2016); cited from earlier work.
The next data set deals with mouse embryos. The note with it: cited from earlier work.
The next data set deals with human stem cells. The note with it: cited from earlier work.
The next data set has as its target human LIG4 (Homo sapiens, UniProt P49917). The following applies: Greco et al. 2016; cited from earlier work.

Molecules are shown by their SMILES.

human LIG4, sequence (P49917 whole entry): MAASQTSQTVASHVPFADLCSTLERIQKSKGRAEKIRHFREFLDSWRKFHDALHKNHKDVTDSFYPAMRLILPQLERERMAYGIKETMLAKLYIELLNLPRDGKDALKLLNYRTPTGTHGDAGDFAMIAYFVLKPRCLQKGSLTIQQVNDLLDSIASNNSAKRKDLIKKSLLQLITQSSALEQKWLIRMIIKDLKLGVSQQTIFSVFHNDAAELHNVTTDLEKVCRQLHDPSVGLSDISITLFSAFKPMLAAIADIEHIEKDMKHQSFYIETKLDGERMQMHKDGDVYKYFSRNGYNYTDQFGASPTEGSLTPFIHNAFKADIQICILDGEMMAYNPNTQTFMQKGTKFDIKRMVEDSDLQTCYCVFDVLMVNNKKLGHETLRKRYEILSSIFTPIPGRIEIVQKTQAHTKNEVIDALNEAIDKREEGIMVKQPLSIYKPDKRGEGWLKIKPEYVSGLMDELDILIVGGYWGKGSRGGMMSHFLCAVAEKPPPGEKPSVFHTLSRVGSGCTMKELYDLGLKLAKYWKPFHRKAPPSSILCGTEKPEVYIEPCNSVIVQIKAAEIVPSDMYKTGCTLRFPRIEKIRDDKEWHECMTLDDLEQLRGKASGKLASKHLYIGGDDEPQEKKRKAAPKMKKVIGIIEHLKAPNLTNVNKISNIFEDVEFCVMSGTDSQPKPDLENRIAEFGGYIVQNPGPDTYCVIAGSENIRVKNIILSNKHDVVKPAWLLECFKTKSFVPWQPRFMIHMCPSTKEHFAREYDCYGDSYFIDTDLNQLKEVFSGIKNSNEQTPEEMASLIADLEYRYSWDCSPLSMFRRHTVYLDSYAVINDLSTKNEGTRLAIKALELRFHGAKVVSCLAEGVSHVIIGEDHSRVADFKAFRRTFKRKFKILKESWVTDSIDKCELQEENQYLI
human LIG4, sequence (Q13426 whole entry partner): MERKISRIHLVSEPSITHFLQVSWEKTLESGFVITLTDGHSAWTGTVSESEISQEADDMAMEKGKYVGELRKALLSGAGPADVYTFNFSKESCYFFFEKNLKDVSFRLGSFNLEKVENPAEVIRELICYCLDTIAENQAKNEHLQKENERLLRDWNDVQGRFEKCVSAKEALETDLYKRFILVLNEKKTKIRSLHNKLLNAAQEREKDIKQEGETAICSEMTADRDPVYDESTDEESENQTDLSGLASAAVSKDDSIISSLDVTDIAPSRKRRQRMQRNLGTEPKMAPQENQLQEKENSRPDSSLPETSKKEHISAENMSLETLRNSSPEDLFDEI

For the compound `CCCCCCNC(=O)Nc1ccc(S(=O)(=O)Nc2ccc(CCNC[C@H](O)COc3ccc(O)cc3)cc2)cc1` [L755507], in the data set on HEK293A cells, the “effect on PGE” value was “did not find significant stimulation”. Moreover, in the data set on hiPSCs (hiPSCs (Zhang et al. 2017)), the “stimulation of PGE” value is “did not find significant stimulation”. Also, the PGE in the data set on hiPSCs (hiPSCs, ssODN, from 0.35% without L755507 (Yu et al. 2015)) was 3.13%; with mouse ESCs, 33.3%. For the same compound, the “effect on PGE when added together with RS-1, compared to RS-1 alone” value in data set [1] is recorded as “no additive effect”.

`O=C(Nc1ccc(Br)cc1)c1ccc(Br)c(S(=O)(=O)NCc2ccccc2)c1` [RS-1]: the PGE in the data set on HEK293A cells (dsODN donors, from 3.5% without RS-1) was 21%; in the data set on rabbit embryos (dsODN donors, from 4.4% without RS-1) it was 26.1%; in the data set with U2OS cells, 2.4%. Besides, the “increase of PGE” value in the data set on hiPSCs (hiPSCs, dsODN donors (Zhang et al., 2017)) was “not”. Besides, in data set [2], the “effect on PGE efficiency” value is on record as “No effect”.

With `O=c1[nH]c(=S)[nH]c(N=Cc2ccccc2)c1N=Cc1ccccc1` [SCR7], the “efficiency of PGE” value in the data set on mouse embryos (from 5% without SCR7 (Maruyama et al. 2015)) was 22.7%. Further, the “effect on PGE” value with mouse embryos (other researchers) was “no significant effect”; with HEK293A cells, “marginal but significant increase”; with rabbit embryos, “no significant effect”; with human stem cells it was “no significant effect”. In addition, the “inhibitory properties on human LIG4” value at human LIG4 is given as “neither selective nor potent inhibitors”. In addition, the “effect on PGE when added together with RS-1, compared to RS-1 alone” value in data set [1] is given as “no additive effect”.
